In US11059844B2, “Immune stimulating macrolides” (ISR IMMUNE SYSTEM REGULATION HOLDING AB (PUBL), priority 2017, dated 2021):
In brackets after ≈: the same amount, converted by molar mass.

Key:
Assay type in all cases: cell-based
Escherichia coli = assay: Minimum Inhibitory Concentration (MIC) assay; conditions: anaerobic, 37° C., 18 h
Experimental: (§1) The bioactivity of macrolide compounds against 4 strains of common gut bacteria (Escherichia coli, Streptococcus salivarius subsp. salivarius, Lactobacillus casei and Bifidobacterium longum subsp. infantis) and common mammalian skin isolate Micrococcus luteus, was assessed using the Minimum Inhibitory Concentration (MIC) assay. Bacterial strains were purchased from DSMZ (Brunswick, Germany) except M. luteus which was obtained from NCIMB, and stored in 20% glycerol at −80° C. Stock solutions (100% DMSO) of positive controls (azithromycin and erythromycin), and of test compounds 1 and 2 were diluted in broth to working stock concentrations of 256 μg/ml (final assay testing concentration range 128 μg/ml to 0.00391 μg/ml). Stock solutions of all other compounds were diluted in broth to working stock concentrations of 128 μg/ml (final assay testing concentration range 64 μg/ml to 0.00195 μg/ml). Bacterial strains were cultivated in appropriate broth in an anaerobic chamber at 37° C., except for M. luteus which was incubated aerobically at 37° C. 18 h cultures were diluted in broth to an OD595 of 0.1 and then further diluted 1:10. In 96-well plates, in duplicate, 200 μl working stock of test compound was transferred to well 1 and serially diluted (1:2) in broth. 100 μl bacterial suspension was aliquoted into each well and mixed thoroughly. Appropriate sterility controls were included and plates were incubated in an anaerobic chamber, or aerobically (M. luteus) at 37° C. for 18 h. The MIC was determined to be the concentration of test compound in the first well with no visible growth.

[1] = tested on: Bifidobacterium longum subsp. infantis; assay: Minimum Inhibitory Concentration (MIC) assay; conditions: anaerobic, 37° C., 18 h
Experimental: as §1

[2] = tested on: Streptococcus salivarius subsp. salivarius; assay: Minimum Inhibitory Concentration (MIC) assay; conditions: anaerobic, 37° C., 18 h
Experimental: as §1

Lactobacillus casei = assay: Minimum Inhibitory Concentration (MIC) assay; conditions: Lacticaseibacillus casei; anaerobic, 37° C., 18 h
Experimental: as §1

[3] = tested on: E. coli, S. salivarius, L. casei, B. longum or M. luteus; assay: Direct antibacterial activity, summary over all strains tested; conditions: summary in words of Table 1
Experimental: as §1

human TLR2 = molecular target: T1, human TLR2 (Homo sapiens, UniProt O60603); assay: TLR2 reporter assay (HEK-293-TLR, SEAP); conditions: for TLR2 stimulation: at concentrations up to 20 uM
T1 construct: host or cells: recombinant HEK-293-TLR cell lines
T1 sequence (O60603 21-784): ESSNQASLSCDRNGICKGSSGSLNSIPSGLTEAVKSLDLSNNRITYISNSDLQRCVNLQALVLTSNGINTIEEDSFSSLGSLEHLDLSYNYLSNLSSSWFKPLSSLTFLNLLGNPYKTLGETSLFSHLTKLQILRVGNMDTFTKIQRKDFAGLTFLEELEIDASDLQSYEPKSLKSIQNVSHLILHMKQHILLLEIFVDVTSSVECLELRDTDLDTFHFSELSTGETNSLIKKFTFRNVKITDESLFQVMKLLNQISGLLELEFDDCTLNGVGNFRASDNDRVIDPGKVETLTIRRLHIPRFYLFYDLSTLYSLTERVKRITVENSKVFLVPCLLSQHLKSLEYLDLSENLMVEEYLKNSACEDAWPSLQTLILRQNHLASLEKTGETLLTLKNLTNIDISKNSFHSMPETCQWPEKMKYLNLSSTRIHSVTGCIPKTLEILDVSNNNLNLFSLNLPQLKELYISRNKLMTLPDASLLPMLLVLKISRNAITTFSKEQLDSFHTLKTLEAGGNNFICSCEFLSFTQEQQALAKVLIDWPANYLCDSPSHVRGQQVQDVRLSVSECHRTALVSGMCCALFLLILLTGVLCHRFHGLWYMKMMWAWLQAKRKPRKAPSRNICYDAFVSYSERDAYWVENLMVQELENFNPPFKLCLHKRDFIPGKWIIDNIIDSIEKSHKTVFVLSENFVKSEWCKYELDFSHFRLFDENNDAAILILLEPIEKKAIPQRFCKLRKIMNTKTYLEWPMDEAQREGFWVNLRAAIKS
Experimental: Samples and controls were tested in duplicate on recombinant HEK-293-TLR cell lines using a cell reporter assay at Invivogen using their standard assay conditions. These cell lines functionally over-express human TLR2 protein as well as a reporter gene which is a secreted alkaline phosphatase (SEAP). The production of this reporter gene is driven by an NFkB inducible promoter. The TLR reporter cell lines activation results are given as optical density values (OD).
20 μl of each test article were used to stimulate the hTLR2 reporter cell lines in a 200 μl of final reaction volume. Samples were tested in duplicate, with at least two concentrations tested—20 uM and 10 uM.
Compounds were tested using a TLR2 reporter assay (see general methods) that measured for stimulation of the TLR2 receptor. Stimulatory effect was measured as an increase in optical density (OD) due to release of secreted alkaline phosphatase (SEAP) and is shown in table 4: […]

Micrococcus luteus = assay: Minimum Inhibitory Concentration (MIC) assay; conditions: aerobic, 37° C., 18 h
Experimental: as §1

MIC (Escherichia coli)	MIC [1]	MIC [2]	MIC (Lactobacillus casei)	lowest concentration at which TLR2 was stimulated (concentrations down to) (human TLR2)	OD after addition of 5 μM test article (human TLR2)	OD after addition of 10 μM test article (human TLR2)	OD after addition of 20 μM test article (human TLR2)	TLR2 stimulation (human TLR2)	MIC (Micrococcus luteus)	SMILES	antibacterial activity against the bacterial strains tested [3]
> 64 µg/mL	> 64 µg/mL	> 64 µg/mL	> 64 µg/mL							CC1O[C@@H](O[C@H]2[C@H](C)[C@@H](O)[C@](C)(O)C[C@@H](C)C(=O)[C@H](C)[C@@H](O)[C@@H](C)[C@@H](C3CCC3)OC(=O)[C@@H]2C)CC(N(C)C)[C@@H]1O (stereo partly drawn) [Compound 5]	no antibacterial activity
				10 µM	0.054 OD	0.155 OD	0.234 OD			CC[C@H]1OC(=O)[C@H](C)[C@@H](O[C@H]2CC(N(C)C)[C@H](O)C(C)O2)[C@H](C)[C@@H](O)[C@](C)(O)C[C@@H](C)N(C)C[C@H](C)[C@@H](O)[C@]1(C)O (stereo partly drawn) [Compound 17]	
> 64 µg/mL	> 64 µg/mL	> 64 µg/mL	> 64 µg/mL							CC[C@H]1OC(=O)[C@H](C)[C@@H](O[C@H]2CC(N(C)C)[C@H](O)C(C)O2)[C@H](C)[C@@H](O)[C@](C)(O)C[C@@H](C)CN(C)[C@H](C)[C@@H](O)[C@H]1C (stereo partly drawn) [Compound 4]	no antibacterial activity
< 8 µg/mL	> 64 µg/mL	< 0.5 µg/mL	< 1 µg/mL		0.029 OD	0.045 OD	0.031 OD	little or no stimulation	0.125 µg/mL (≈ 0.167 µM)	CC[C@H]1OC(=O)[C@H](C)[C@@H](O[C@H]2C[C@@](C)(OC)[C@@H](O)[C@H](C)O2)[C@H](C)[C@@H](O[C@@H]2O[C@H](C)C[C@H](N(C)C)[C@H]2O)[C@](C)(O)C[C@@H](C)CN(C)[C@H](C)[C@@H](O)[C@]1(C)O [Azithromycin, reference compound]	potent activity against a number of the strains
					−0.043 OD	−0.015 OD	−0.026 OD	little or no stimulation		CC[C@H]1OC(=O)[C@H](C)[C@@H](O[C@H]2CC(N(C)C)[C@H](O)C(C)O2)[C@H](C)[C@@H](O)[C@](C)(O)C[C@@H](C)C(=O)[C@H](C)[C@@H](O)[C@H]1C (stereo partly drawn) [Compound 3]	no antibacterial activity
> 64 µg/mL	> 64 µg/mL	> 64 µg/mL	> 64 µg/mL							CC[C@H]1OC(=O)[C@H](C)[C@@H](O[C@H]2CC(NC)[C@H](O)C(C)O2)[C@H](C)[C@@H](O)[C@](C)(O)C[C@@H](C)C(=O)[C@H](C)[C@@H](O)[C@H]1C (stereo partly drawn) [Compound 6]	no antibacterial activity
> 64 µg/mL	> 64 µg/mL	> 64 µg/mL	> 64 µg/mL							CC1O[C@@H](O[C@H]2[C@H](C)[C@@H](O)[C@](C)(O)C[C@@H](C)C(=O)[C@H](C)[C@@H](O)[C@@H](C)[C@@H](C)OC(=O)[C@@H]2C)CC(N(C)C)[C@@H]1O (stereo partly drawn) [Compound 8]	no antibacterial activity
> 64 µg/mL	> 64 µg/mL	> 64 µg/mL	> 64 µg/mL							CC(O)[C@H]1OC(=O)[C@H](C)[C@@H](O[C@H]2C[C@@H](N(C)C)[C@H](O)[C@@H](C)O2)[C@H](C)[C@@H](O)[C@](C)(O)C[C@@H](C)C(=O)[C@H](C)[C@@H](O)[C@H]1C (stereo partly drawn) [Compound 9, 14-hydroxy angolosamine erythronolide B]	no antibacterial activity
> 64 µg/mL	> 64 µg/mL	< 0.06 µg/mL	< 0.25 µg/mL		0.035 OD	0.065 OD	0.045 OD	little or no stimulation	< 0.0625 µg/mL	CC[C@H]1OC(=O)[C@H](C)[C@@H](O[C@H]2C[C@@](C)(OC)[C@@H](O)[C@H](C)O2)[C@H](C)[C@@H](O[C@@H]2O[C@H](C)C[C@H](N(C)C)[C@H]2O)[C@](C)(O)C[C@@H](C)C(=O)[C@H](C)[C@@H](O)[C@]1(C)O [Erythromycin, reference compound]	potent activity against a number of the strains
